Target: T1, collagen type 1 of the scaffold (CMI) (Bos taurus, UniProt P02453+P02465)
T1 construct: the CMI is build out of collagen type 1 from bovine origin (FDA approved implant); from tissue; host or cells: bovine-derived collagen, in the form of the commercial collagen meniscal implant (CMI) scaffold
Assay: Immunofluorescence (IF) assay for PDGF-BB on the collagen meniscal implant (CMI)
Type: binding, bovine
Description: Pictures are merged z-stack files from confocal microscopy.
(1) Complete assay; (2) Blank assay; (3) Assay without peptide; (4) Assay without growth factor (PDGF); (5) Assay without primary antibody. Note: PDGF appears to bind well to collagen type 1 of the scaffold even without pre-incubation of the bi-peptide structure. Therefore the heparin-binding domain part of the peptide for PDGF can't be evaluated according to this assay.
FIG. 10 is an image of a Tile confocal scan of the CMI in the IF assay for PDGF-BB. The complete surface of the CMI was able to bind with recombinant PDGF.

T1 sequence (P02453 162-1217 limits assumed): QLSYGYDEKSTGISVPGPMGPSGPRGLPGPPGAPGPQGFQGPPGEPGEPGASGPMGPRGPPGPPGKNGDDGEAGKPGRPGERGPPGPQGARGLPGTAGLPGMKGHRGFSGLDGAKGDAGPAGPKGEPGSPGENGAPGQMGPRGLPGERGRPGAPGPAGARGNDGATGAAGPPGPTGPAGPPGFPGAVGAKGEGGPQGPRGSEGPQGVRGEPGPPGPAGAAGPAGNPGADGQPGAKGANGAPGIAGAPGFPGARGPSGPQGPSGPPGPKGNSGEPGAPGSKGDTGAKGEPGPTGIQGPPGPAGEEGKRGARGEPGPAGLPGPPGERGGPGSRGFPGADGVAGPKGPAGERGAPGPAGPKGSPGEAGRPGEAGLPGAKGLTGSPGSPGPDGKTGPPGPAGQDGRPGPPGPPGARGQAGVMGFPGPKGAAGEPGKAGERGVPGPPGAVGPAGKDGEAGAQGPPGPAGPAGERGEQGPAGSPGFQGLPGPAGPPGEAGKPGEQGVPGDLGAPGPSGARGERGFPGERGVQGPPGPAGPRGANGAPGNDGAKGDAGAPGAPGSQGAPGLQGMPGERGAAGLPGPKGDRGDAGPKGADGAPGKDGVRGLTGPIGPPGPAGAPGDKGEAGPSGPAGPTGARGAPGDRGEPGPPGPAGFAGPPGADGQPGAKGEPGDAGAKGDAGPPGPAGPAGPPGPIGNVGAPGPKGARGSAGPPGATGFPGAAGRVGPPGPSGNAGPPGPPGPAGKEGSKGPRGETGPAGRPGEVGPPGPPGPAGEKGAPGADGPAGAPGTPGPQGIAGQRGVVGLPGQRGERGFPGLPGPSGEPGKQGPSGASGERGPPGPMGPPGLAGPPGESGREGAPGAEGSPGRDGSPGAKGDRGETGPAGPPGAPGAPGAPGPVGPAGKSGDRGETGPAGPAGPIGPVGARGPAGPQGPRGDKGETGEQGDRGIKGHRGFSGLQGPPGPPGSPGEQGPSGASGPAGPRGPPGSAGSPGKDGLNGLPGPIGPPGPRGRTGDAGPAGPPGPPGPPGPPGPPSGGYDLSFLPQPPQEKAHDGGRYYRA
T1 sequence (P02465 80-1117 limits assumed): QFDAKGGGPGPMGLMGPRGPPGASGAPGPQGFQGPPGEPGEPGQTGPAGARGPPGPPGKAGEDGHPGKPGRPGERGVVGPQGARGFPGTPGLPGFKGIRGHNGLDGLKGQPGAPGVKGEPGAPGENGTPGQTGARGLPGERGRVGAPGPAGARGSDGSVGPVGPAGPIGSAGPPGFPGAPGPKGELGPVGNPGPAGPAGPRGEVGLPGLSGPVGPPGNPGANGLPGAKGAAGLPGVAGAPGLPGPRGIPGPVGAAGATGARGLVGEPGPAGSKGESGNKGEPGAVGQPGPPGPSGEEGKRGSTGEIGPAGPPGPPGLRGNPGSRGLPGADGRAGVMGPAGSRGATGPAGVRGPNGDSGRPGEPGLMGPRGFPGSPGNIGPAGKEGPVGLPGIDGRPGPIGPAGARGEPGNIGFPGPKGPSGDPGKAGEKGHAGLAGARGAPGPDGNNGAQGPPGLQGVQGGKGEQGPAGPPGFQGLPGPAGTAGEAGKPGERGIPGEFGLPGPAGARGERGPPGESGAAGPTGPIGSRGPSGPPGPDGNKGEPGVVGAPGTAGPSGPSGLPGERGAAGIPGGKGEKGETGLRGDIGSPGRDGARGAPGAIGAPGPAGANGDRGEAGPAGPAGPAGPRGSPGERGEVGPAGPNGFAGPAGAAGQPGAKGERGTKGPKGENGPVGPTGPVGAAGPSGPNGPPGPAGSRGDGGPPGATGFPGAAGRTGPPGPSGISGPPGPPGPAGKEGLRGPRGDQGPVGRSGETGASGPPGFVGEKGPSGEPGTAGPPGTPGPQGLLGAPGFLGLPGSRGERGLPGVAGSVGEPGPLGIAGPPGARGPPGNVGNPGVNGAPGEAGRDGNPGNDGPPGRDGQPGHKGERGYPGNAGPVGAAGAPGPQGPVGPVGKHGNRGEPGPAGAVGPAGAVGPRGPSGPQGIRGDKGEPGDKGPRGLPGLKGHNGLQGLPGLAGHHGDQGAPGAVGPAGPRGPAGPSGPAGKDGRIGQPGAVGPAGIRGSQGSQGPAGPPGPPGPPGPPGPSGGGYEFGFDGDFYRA

## PDGF
IF assay on CMI, without pre-incubation of the bi-peptide structure
  binding of PDGF to collagen type 1 of the scaffold: bind well
Tile confocal scan of the CMI, complete surface
  binding of recombinant PDGF to the CMI surface: able to bind

From patent publication US20230312685A1, “Bi-Peptide with Affinity to Extracellular Matrix Proteins or Cells and to Growth Factors for Tissue Healing and Regeneration” (Mayo Foundation for Medical Education and Research, priority 2019, published 2023)
